Laboratory results from PubChem BioAssay (NCI).
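Briefly, cells in 96-well plates were exposed to five compound concentrations for 48 h, and endpoints were estimated by linear interpolation. Abbreviation: GI50, concentration required for 50% inhibition of growth. TGI denotes the concentration required for complete inhibition of growth.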

Legend:
Assay in all cases: NCI tumour cell line growth inhibition, 48 h
NCI-H23 lung = test system: NCI-H23 lung
NCI-H460 lung = test system: NCI-H460 lung
NCI-H522 lung = test system: NCI-H522 lung
NCI/ADR-RES ovarian = test system: NCI/ADR-RES ovarian
OVCAR-3 ovarian = test system: OVCAR-3 ovarian
OVCAR-4 ovarian = test system: OVCAR-4 ovarian
OVCAR-5 ovarian = test system: OVCAR-5 ovarian
OVCAR-8 ovarian = test system: OVCAR-8 ovarian
PC-3 prostate = test system: PC-3 prostate
RPMI-8226 leukemia = test system: RPMI-8226 leukemia
RXF 393 renal = test system: RXF 393 renal
SF-268 CNS = test system: SF-268 CNS
SF-295 CNS = test system: SF-295 CNS
SF-539 CNS = test system: SF-539 CNS
SK-MEL-2 melanoma = test system: SK-MEL-2 melanoma
SK-MEL-28 melanoma = test system: SK-MEL-28 melanoma
SK-MEL-5 melanoma = test system: SK-MEL-5 melanoma
SK-OV-3 ovarian = test system: SK-OV-3 ovarian
SN12C renal = test system: SN12C renal
SNB-19 CNS = test system: SNB-19 CNS
SNB-75 CNS = test system: SNB-75 CNS
SR leukemia = test system: SR leukemia
SW-620 colon = test system: SW-620 colon
TK-10 renal = test system: TK-10 renal
U251 CNS = test system: U251 CNS
UACC-257 melanoma = test system: UACC-257 melanoma
UACC-62 melanoma = test system: UACC-62 melanoma
UO-31 renal = test system: UO-31 renal

In the case of `COc1ccc([As]=[As]c2ccc(OC)c(NCS(=O)(=O)O)c2)cc1NCS(=O)(=O)O` (stereo unspecified), the GI50 (NCI-H23 lung) is reported as 2.57 µM, the TGI (NCI-H23 lung) is reported as 8.62 µM and the GI50 (NCI-H460 lung) is reported as 3.49 µM. It also gave a TGI (NCI-H460 lung) of 12.2 µM, a GI50 (NCI-H522 lung) of 0.324 µM and a TGI (NCI-H522 lung) of 1.53 µM. The GI50 (NCI/ADR-RES ovarian) was 3.49 µM, the TGI (NCI/ADR-RES ovarian) was 27.1 µM and the GI50 (OVCAR-3 ovarian) was 1.57 µM. For the same compound, the TGI (OVCAR-3 ovarian) was 3.06 µM, the GI50 (OVCAR-4 ovarian) was 1.27 µM and the TGI (OVCAR-4 ovarian) was 2.6 µM. It also gave a GI50 (OVCAR-5 ovarian) of 2.02 µM, a TGI (OVCAR-5 ovarian) of 4.22 µM and a GI50 (OVCAR-8 ovarian) of 2.48 µM. For the same compound, the TGI (OVCAR-8 ovarian) was 6.84 µM, the GI50 (PC-3 prostate) was 3.14 µM and the TGI (PC-3 prostate) was 11.7 µM. The GI50 (RPMI-8226 leukemia) was 0.926 µM, the TGI (RPMI-8226 leukemia) was 5.93 µM and the GI50 (RXF 393 renal) was 1.41 µM. The TGI (RXF 393 renal) was 3.09 µM, the GI50 (SF-268 CNS) was 1.62 µM and the TGI (SF-268 CNS) was 4.12 µM. For the same compound, the GI50 (SF-295 CNS) was 3.01 µM, the TGI (SF-295 CNS) was 9.48 µM and the GI50 (SF-539 CNS) was 1.39 µM. It also gave a TGI (SF-539 CNS) of 3.43 µM, a GI50 (SK-MEL-2 melanoma) of 1.91 µM and a TGI (SK-MEL-2 melanoma) of 4.54 µM. For the same compound, the GI50 (SK-MEL-28 melanoma) was 1.45 µM, the TGI (SK-MEL-28 melanoma) was 3 µM and the GI50 (SK-MEL-5 melanoma) was 1.86 µM. It also gave a TGI (SK-MEL-5 melanoma) of 4.27 µM, a GI50 (SK-OV-3 ovarian) of 10 µM and a TGI (SK-OV-3 ovarian) of 21.8 µM. For the same compound, the GI50 (SN12C renal) was 1.54 µM, the TGI (SN12C renal) was 3.34 µM and the GI50 (SNB-19 CNS) was 1.82 µM. It also gave a TGI (SNB-19 CNS) of 3.68 µM, a GI50 (SNB-75 CNS) of 1.27 µM and a TGI (SNB-75 CNS) of 2.8 µM. It also gave a GI50 (SR leukemia) of 0.691 µM, a TGI (SR leukemia) of 4.88 µM and a GI50 (SW-620 colon) of 1.17 µM. For the same compound, the TGI (SW-620 colon) was 3.04 µM, the GI50 (TK-10 renal) was 1.86 µM and the TGI (TK-10 renal) was 3.55 µM. For the same compound, the GI50 (U251 CNS) was 0.768 µM, the TGI (U251 CNS) was 2.25 µM and the GI50 (UACC-257 melanoma) was 1.62 µM. For the same compound, the TGI (UACC-257 melanoma) was 3.37 µM, the GI50 (UACC-62 melanoma) was 1.86 µM and the TGI (UACC-62 melanoma) was 4.6 µM. It also gave a GI50 (UO-31 renal) of 1.46 µM and a TGI (UO-31 renal) of 3.16 µM.
